Laboratory results taken from patent US20260232767A1, “INTERLEUKIN-23 RECEPTOR ANTAGONIST PEPTIDES FOR USE IN THE TREATMENT OF PSORIASIS” (Janssen Pharmaceutica NV, priority 2023, published 2026).

System: subjects with moderate-to-severe plaque psoriasis
Assay: Safety, adverse events, Example 2 through Week 56
Type: in vivo, human
Settings: through Week 56
Excerpt: The LTE safety analysis was based on randomized participants in Example who entered the present long-term extension study and received at least one dose of study intervention (including a partial dose) during the study period.

[1] = Placebo → 100 mg QD after crossover

CC(=O)NCCCC[C@@H]1NC(=O)[C@H](Cc2c[nH]c3c(C)cccc23)NC(=O)[C@H]([C@@H](C)O)NC(=O)[C@H](CC(N)=O)NC(=O)[C@@H](NC(C)=O)C(C)(C)SSC(C)(C)[C@@H](C(=O)N[C@@H](Cc2ccc(OCCN)cc2)C(=O)N[C@@H](Cc2ccc3ccccc3c2)C(=O)NC2(C(=O)N[C@@H](CCC(=O)O)C(=O)N[C@@H](CC(N)=O)C(=O)N[C@@H](Cc3cccnc3)C(=O)N(C)CC(N)=O)CCOCC2)NC1=O [IL-23 receptor antagonist peptide, Ac-[Pen]*-N-T-[W(7-Me)]-[Lys(Ac)]-[Pen]*-Phe[4-(2-aminoethoxy)]-[2-Nal]-[THP]-E-N-[3-Pal]-Sarc-NH2 (*[Pen]-[Pen]* formdisulfidebond)]
Subjects with Mouth ulceration: 0
Subjects with Tendonitis: 0
Subjects with 1 or more Adverse events (25 mg BID): (78.0%)
Subjects with 1 or more Adverse events: Alanine aminotransferase increased (25 mg BID): (2.4%)
Subjects with 1 or more Adverse events: Aspartate aminotransferase increased (25 mg BID): (2.4%)
Subjects with 1 or more Adverse events: Bronchitis (25 mg BID): (4.9%)
Subjects with 1 or more Adverse events: COVID-19 (25 mg BID): (22.0%)
Subjects with 1 or more Adverse events: Diarrhea (25 mg BID): (4.9%)
Subjects with 1 or more Adverse events: Headache (25 mg BID): (7.3%)
Subjects with 1 or more Adverse events: Influenza (25 mg BID): (7.3%)
Subjects with 1 or more Adverse events: Nasopharyngitis (25 mg BID): (19.5%)
Subjects with 1 or more Adverse events: Upper respiratory tract infection (25 mg BID): (7.3%)
Subjects with 1 or more Adverse events: Urinary tract infection (25 mg BID): (2.4%)
Subjects with 1 or more Serious adverse events (25 mg BID): (7.3%)
Subjects with 1 or more Serious adverse events: Ligament injury (25 mg BID): (2.4%)
Subjects with 1 or more Serious adverse events: Tonsillar hypertrophy (25 mg BID): (2.4%)
Subjects with 1 or more Serious adverse events: Ventricular dysfunction (25 mg BID): (2.4%)
Subjects with 1 or more treatment-emergent adverse events leading to discontinuation of study agent (25 mg BID): (4.9%)
Subjects with 1 or more Adverse events (25 mg QD): (55.8%)
Subjects with 1 or more Adverse events: Alanine aminotransferase increased (25 mg QD): (2.3%)
Subjects with 1 or more Adverse events: Arthralgia (25 mg QD): (2.3%)
Subjects with 1 or more Adverse events: Aspartate aminotransferase increased (25 mg QD): (2.3%)
Subjects with 1 or more Adverse events: Bronchitis (25 mg QD): (4.7%)
Subjects with 1 or more Adverse events: COVID-19 (25 mg QD): (14.0%)
Subjects with 1 or more Adverse events: Cough (25 mg QD): (2.3%)
Subjects with 1 or more Adverse events: Diarrhea (25 mg QD): (4.7%)
Subjects with 1 or more Adverse events: Headache (25 mg QD): (4.7%)
Subjects with 1 or more Adverse events: Nasopharyngitis (25 mg QD): (7.0%)
Subjects with 1 or more Adverse events: Upper respiratory tract infection (25 mg QD): (16.3%)
Subjects with 1 or more Adverse events: Urinary tract infection (25 mg QD): (4.7%)
Subjects with 1 or more treatment-emergent adverse events leading to discontinuation of study agent (25 mg QD): (7.0%)
Subjects with 1 or more Adverse events (50 mg QD): (74.4%)
Subjects with 1 or more Adverse events: Alanine aminotransferase increased (50 mg QD): (2.3%)
Subjects with 1 or more Adverse events: Arthralgia (50 mg QD): (2.3%)
Subjects with 1 or more Adverse events: Aspartate aminotransferase increased (50 mg QD): (2.3%)
Subjects with 1 or more Adverse events: Bronchitis (50 mg QD): (9.3%)
Subjects with 1 or more Adverse events: COVID-19 (50 mg QD): (14.0%)
Subjects with 1 or more Adverse events: Cough (50 mg QD): (4.7%)
Subjects with 1 or more Adverse events: Diarrhea (50 mg QD): (9.3%)
Subjects with 1 or more Adverse events: Headache (50 mg QD): (2.3%)
Subjects with 1 or more Adverse events: Influenza (50 mg QD): (2.3%)
Subjects with 1 or more Adverse events: Nasopharyngitis (50 mg QD): (30.2%)
Subjects with 1 or more Adverse events: Upper respiratory tract infection (50 mg QD): (7.0%)
Subjects with 1 or more Adverse events: Urinary tract infection (50 mg QD): (2.3%)
Subjects with 1 or more Serious adverse events (50 mg QD): (7.0%)
Subjects with 1 or more Serious adverse events: Coronary artery disease (50 mg QD): (2.3%)
Subjects with 1 or more Serious adverse events: Foot deformity (50 mg QD): (2.3%)
Subjects with 1 or more Serious adverse events: Infected cyst (50 mg QD): (2.3%)
Subjects with 1 or more Serious adverse events: Non-cardiac chest pain (50 mg QD): (2.3%)
Subjects with 1 or more treatment-emergent adverse events leading to discontinuation of study agent (50 mg QD): (4.7%)
Subjects with 1 or more Adverse events (100 mg BID): (76.2%)
Subjects with 1 or more Adverse events: Alanine aminotransferase increased (100 mg BID): (9.5%)
Subjects with 1 or more Adverse events: Arthralgia (100 mg BID): (4.8%)
Subjects with 1 or more Adverse events: Aspartate aminotransferase increased (100 mg BID): (7.1%)
Subjects with 1 or more Adverse events: COVID-19 (100 mg BID): (16.7%)
Subjects with 1 or more Adverse events: Cough (100 mg BID): (4.8%)
Subjects with 1 or more Adverse events: Diarrhea (100 mg BID): (2.4%)
Subjects with 1 or more Adverse events: Headache (100 mg BID): (2.4%)
Subjects with 1 or more Adverse events: Influenza (100 mg BID): (2.4%)
Subjects with 1 or more Adverse events: Nasopharyngitis (100 mg BID): (11.9%)
Subjects with 1 or more Adverse events: Upper respiratory tract infection (100 mg BID): (11.9%)
Subjects with 1 or more Adverse events: Urinary tract infection (100 mg BID): (4.8%)
Subjects with 1 or more Serious adverse events (100 mg BID): (2.4%)
Subjects with 1 or more Serious adverse events: Uterine leiomyoma (100 mg BID): (2.4%)
Subjects with 1 or more treatment-emergent adverse events leading to discontinuation of study agent (100 mg BID): (2.4%)
Subjects with 1 or more Adverse events (100 mg QD): (72.1%)
Subjects with 1 or more Adverse events: Arthralgia (100 mg QD): (7.0%)
Subjects with 1 or more Adverse events: COVID-19 (100 mg QD): (11.6%)
Subjects with 1 or more Adverse events: Cough (100 mg QD): (7.0%)
Subjects with 1 or more Adverse events: Diarrhea (100 mg QD): (2.3%)
Subjects with 1 or more Adverse events: Headache (100 mg QD): (11.6%)
Subjects with 1 or more Adverse events: Influenza (100 mg QD): (2.3%)
Subjects with 1 or more Adverse events: Nasopharyngitis (100 mg QD): (25.6%)
Subjects with 1 or more Adverse events: Upper respiratory tract infection (100 mg QD): (4.7%)
Subjects with 1 or more Serious adverse events (100 mg QD): (7.0%)
Subjects with 1 or more Serious adverse events: COVID-19 (100 mg QD): (2.3%)
Subjects with 1 or more Serious adverse events: Diverticulitis (100 mg QD): (2.3%)
Subjects with 1 or more Serious adverse events: Intervertebral disc protrusion (100 mg QD): (2.3%)
Subjects with 1 or more Serious adverse events: Suicide attempt (100 mg QD): (2.3%)
Subjects with 1 or more treatment-emergent adverse events leading to discontinuation of study agent (100 mg QD): (4.7%)
Subjects with 1 or more Adverse events (Combined): (70.4%)
Subjects with 1 or more Adverse events: Alanine aminotransferase increased (Combined): (3.6%)
Subjects with 1 or more Adverse events: Arthralgia (Combined): (3.2%)
Subjects with 1 or more Adverse events: Aspartate aminotransferase increased (Combined): (2.8%)
Subjects with 1 or more Adverse events: Bronchitis (Combined): (3.6%)
Subjects with 1 or more Adverse events: COVID-19 (Combined): (14.2%)
Subjects with 1 or more Adverse events: Cough (Combined): (3.2%)
Subjects with 1 or more Adverse events: Diarrhea (Combined): (4.5%)
Subjects with 1 or more Adverse events: Headache (Combined): (4.9%)
Subjects with 1 or more Adverse events: Influenza (Combined): (2.8%)
Subjects with 1 or more Adverse events: Nasopharyngitis (Combined): (19.8%)
Subjects with 1 or more Adverse events: Upper respiratory tract infection (Combined): (9.7%)
Subjects with 1 or more Adverse events: Urinary tract infection (Combined): (3.2%)
Subjects with 1 or more Serious adverse events (Combined): (4.5%)
Subjects with 1 or more Serious adverse events: COVID-19 (Combined): (0.4%)
Subjects with 1 or more Serious adverse events: Cerebrovascular accident (Combined): (0.4%)
Subjects with 1 or more Serious adverse events: Coronary artery disease (Combined): (0.4%)
Subjects with 1 or more Serious adverse events: Diverticulitis (Combined): (0.4%)
Subjects with 1 or more Serious adverse events: Foot deformity (Combined): (0.4%)
Subjects with 1 or more Serious adverse events: Infected cyst (Combined): (0.4%)
Subjects with 1 or more Serious adverse events: Intervertebral disc protrusion (Combined): (0.4%)
Subjects with 1 or more Serious adverse events: Ligament injury (Combined): (0.4%)
Subjects with 1 or more Serious adverse events: Non-cardiac chest pain (Combined): (0.4%)
Subjects with 1 or more Serious adverse events: Suicide attempt (Combined): (0.4%)
Subjects with 1 or more Serious adverse events: Tonsillar hypertrophy (Combined): (0.4%)
Subjects with 1 or more Serious adverse events: Uterine leiomyoma (Combined): (0.4%)
Subjects with 1 or more Serious adverse events: Ventricular dysfunction (Combined): (0.4%)
Subjects with 1 or more treatment-emergent adverse events leading to discontinuation of study agent (Combined): (4.0%)
Subjects with 1 or more Adverse events [1]: (65.7%)
Subjects with 1 or more Adverse events: Alanine aminotransferase increased [1]: (5.7%)
Subjects with 1 or more Adverse events: Arthralgia [1]: (2.9%)
Subjects with 1 or more Adverse events: Aspartate aminotransferase increased [1]: (2.9%)
Subjects with 1 or more Adverse events: Bronchitis [1]: (2.9%)
Subjects with 1 or more Adverse events: COVID-19 [1]: (5.7%)
Subjects with 1 or more Adverse events: Diarrhea [1]: (2.9%)
Subjects with 1 or more Adverse events: Influenza [1]: (2.9%)
Subjects with 1 or more Adverse events: Nasopharyngitis [1]: (25.7%)
Subjects with 1 or more Adverse events: Upper respiratory tract infection [1]: (11.4%)
Subjects with 1 or more Adverse events: Urinary tract infection [1]: (5.7%)
Subjects with 1 or more Serious adverse events [1]: (2.9%)
Subjects with 1 or more Serious adverse events: Cerebrovascular accident [1]: (2.9%)
